Reference: ChEMBL document CHEMBL1201862, “PubChem BioAssay data set” (2004)
Where a name gives a salt, the structure may show the parent alone. Active and inactive are the calls of the source.

Key:
[1] = molecular target: Adenosylmethionine-8-amino-7-oxononanoate aminotransferase (Mycobacterium tuberculosis, UniProt P9WQ81); test: Mycobacterium tuberculosis BioA enzyme inhibitor Measured in Biochemical System Using Plate Reader - 2163-02_Inhibitor_Dose_CherryPick_Activity.; format: functional, Mycobacterium tuberculosis UT205
[2] = AlphaScreen signal interference compounds, dose response, artefact control for ARNT-TACC3 interaction inhibitor project, biochemical, luminescence, cherry-pick (AID 651705); format: functional;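 further: AlphaScreen bead proximity signal that flags compounds interfering with the detection technology; potency reflects signal decrease which marks the compound as an assay artifact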
HeLa = test: HeLa cell cytotoxicity, dose response, cytotoxicity control for MITF activator project, CellTiter-Glo luminescence, cherry-pick samples (AID 540259); format: functional, cell-based; details: Homo sapiens
[3] = molecular target: T1, Type-1 angiotensin II receptor (Homo sapiens, UniProt P30556); test: AT1 receptor antagonists, dose response, selectivity assay for APJ receptor antagonist project, cell-based, uHTS hits (AID 463214); format: functional;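 further: antagonist potency against angiotensin II stimulated AT1 response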
T1 sequence (P30556 whole entry): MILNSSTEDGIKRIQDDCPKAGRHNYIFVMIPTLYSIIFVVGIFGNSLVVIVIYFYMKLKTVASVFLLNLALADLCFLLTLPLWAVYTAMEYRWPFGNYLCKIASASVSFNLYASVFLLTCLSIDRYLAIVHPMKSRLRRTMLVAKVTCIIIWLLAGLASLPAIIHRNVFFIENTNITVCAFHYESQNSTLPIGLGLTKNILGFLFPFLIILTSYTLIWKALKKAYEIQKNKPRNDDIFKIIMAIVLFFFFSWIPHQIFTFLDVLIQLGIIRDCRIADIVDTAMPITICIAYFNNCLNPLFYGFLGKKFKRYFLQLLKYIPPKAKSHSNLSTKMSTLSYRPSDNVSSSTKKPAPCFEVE

Beta-galactosidase = Beta-galactosidase (Escherichia coli, UniProt Q8VNN2); test: PubChem AID 485352; format: functional
[4] = Counterscreen for activators of the function of SWI/SNF related, matrix associated, actin dependent regulator of chromatin, subfamily a, member 2 (SMARCA2, BRM): Luminescence-based cell-based high throughput dose response assay to identify non-selective compounds using the VP16 reporter assay.; format: functional
[5] = molecular target: SWI/SNF-related matrix-associated actin-dependent regulator of chromatin subfamily A member 2 (Homo sapiens, UniProt P51531); test: Luminescence-based cell-based high throughput dose response assay to identify activators of the function of SWI/SNF related, matrix associated, actin dependent regulator of chromatin, subfamily a, member 2 (SMARCA2, BRM).; format: functional
[6] = inhibitors of SNCA 5'UTR-driven reporter translation, confirmation, H4 neuroglioma cells, luminescence (AID 1988); format: functional, cell-based
[7] = molecular target: Luciferin 4-monooxygenase (Photinus pyralis, UniProt P08659); test: firefly luciferase enzyme inhibitors, dose response, biochemical, luminescence (AID 1891)
[8] = Luminescence Cell-Based Dose Confirmation HTS to Identify Inhibitors of Platelet Dense Granule Release. [Related pubchem assays: 1663 (Primary HTS), 1678 (Summary of Project)]; format: functional
[9] = inhibitors of firefly luciferase expression or activity, dose response, H4 neuroglioma cells, luminescence (AID 1990); format: functional, cell-based
[10] = molecular target: Glucose-6-phosphate 1-dehydrogenase (Homo sapiens, UniProt P11413); test: human G6PD enzyme inhibitors, dose response, selectivity assay for P. falciparum G6PD inhibitor project, biochemical, fluorescence (AID 504792); format: functional
Coagulation factor XII = molecular target: T2, Coagulation factor XII (Homo sapiens, UniProt P00748); format: functional;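 further: activated factor XIIa alpha cleaving a fluorogenic AMC peptide substrate; inhibitor potency from loss of enzyme activity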
T2 sequence (P00748 whole entry): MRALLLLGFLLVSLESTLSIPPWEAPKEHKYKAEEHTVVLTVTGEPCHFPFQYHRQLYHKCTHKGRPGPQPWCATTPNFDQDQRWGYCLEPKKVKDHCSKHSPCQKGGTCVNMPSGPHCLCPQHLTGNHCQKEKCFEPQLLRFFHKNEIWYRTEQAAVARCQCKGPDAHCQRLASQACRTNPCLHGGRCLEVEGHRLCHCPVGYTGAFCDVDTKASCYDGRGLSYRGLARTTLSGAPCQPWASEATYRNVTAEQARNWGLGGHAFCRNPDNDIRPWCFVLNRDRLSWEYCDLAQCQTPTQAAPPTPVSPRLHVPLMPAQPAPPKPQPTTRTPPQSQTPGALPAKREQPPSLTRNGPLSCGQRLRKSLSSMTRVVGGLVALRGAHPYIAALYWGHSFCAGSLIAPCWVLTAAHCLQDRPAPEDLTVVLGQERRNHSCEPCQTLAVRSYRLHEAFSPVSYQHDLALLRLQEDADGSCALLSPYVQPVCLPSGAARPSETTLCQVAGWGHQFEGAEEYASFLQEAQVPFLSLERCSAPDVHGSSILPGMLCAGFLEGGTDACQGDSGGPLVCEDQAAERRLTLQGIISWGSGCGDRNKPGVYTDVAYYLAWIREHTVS

[11] = molecular target: T3, Sentrin-specific protease 1 (Homo sapiens, UniProt Q9P0U3); test: Dose response confirmation of small molecule inhibitors of the catalytic domain of the SUMO protease, SENP1 in a FRET assay.; format: functional; details: read-out: IC50_Mean
T3 sequence (Q9P0U3 whole entry): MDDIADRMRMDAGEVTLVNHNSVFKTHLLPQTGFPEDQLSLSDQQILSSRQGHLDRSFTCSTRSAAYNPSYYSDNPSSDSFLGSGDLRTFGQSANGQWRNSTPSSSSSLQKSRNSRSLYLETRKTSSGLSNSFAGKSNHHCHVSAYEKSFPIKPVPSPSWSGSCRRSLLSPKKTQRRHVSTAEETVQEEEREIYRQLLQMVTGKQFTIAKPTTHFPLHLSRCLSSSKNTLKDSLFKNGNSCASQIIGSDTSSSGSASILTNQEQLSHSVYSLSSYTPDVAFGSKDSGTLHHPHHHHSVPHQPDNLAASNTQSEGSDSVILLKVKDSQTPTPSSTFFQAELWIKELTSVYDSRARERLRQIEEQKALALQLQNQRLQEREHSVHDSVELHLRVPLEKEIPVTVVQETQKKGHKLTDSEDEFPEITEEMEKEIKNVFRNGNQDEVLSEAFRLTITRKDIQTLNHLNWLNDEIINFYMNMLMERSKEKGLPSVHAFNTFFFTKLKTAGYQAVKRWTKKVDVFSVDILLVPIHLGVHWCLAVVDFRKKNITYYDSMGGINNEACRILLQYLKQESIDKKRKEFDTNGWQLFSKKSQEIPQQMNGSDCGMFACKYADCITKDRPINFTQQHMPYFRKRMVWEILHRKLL

[12] = molecular target: T3, Sentrin-specific protease 1; test: potency of human SENP1 inhibitors, dose response, biochemical, kinetic FRET (AID 651697); format: functional; details: read-out: IC50_Mean
HEK293 = test: inhibitors of LMP1-driven NF-kB reporter, dose response, cell-based, HEK293, luciferase, cherry-pick (AID 588343); format: functional; details: Homo sapiens
[13] = molecular target: T4, Latent membrane protein 1 (Human herpesvirus 4 (strain B95-8), UniProt P03230); test: TES1-eGFP NF-kB reporter inhibition versus Tet-On dsRED, dose response, selectivity assay for LMP1 NF-kB inhibitor project, imaging, HEK293T, dual-color eGFP/dsRED, cherry-picks (AID 588398); format: functional, cell-based
T4 sequence (P03230 whole entry): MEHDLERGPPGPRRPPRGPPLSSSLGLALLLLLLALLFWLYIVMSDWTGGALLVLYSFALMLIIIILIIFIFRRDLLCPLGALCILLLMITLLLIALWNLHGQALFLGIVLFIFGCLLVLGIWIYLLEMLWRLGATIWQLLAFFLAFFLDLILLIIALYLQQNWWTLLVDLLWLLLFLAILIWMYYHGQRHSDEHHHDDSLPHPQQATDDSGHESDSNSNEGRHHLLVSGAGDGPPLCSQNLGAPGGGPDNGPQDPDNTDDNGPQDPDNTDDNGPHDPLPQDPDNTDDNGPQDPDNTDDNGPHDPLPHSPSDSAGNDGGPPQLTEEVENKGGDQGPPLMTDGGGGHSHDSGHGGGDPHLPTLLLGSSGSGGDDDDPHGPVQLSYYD

Paired box protein Pax-8 = Paired box protein Pax-8 (Homo sapiens, UniProt Q06710); test: inhibitors of PAX8-driven TPO luciferase reporter, dose response, RMG-I cells, cherry-pick (AID 687027); format: functional, cell-based;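 further: luciferase reporter driven by Pax8 target thyroperoxidase promoter measured by SteadyGlo luminescence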
[14] = Luminescence Cell-Based Dose Response HTS to Identify Inhibitors of 5'UTR Stem-Loop Driven Prion Protein mRNA Translation in H4 Neuroglioblastoma Cells. [Related pubchem assays: 1827 (Project Summary), 1813 (Primary HTS)]; format: functional
[15] = nonselective inhibitors of cellular cAMP signaling, dose response, counter-screen for MC4R biased antagonist project, cell-based, TR-FRET cAMP detection (AID 602305); format: functional;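 further: U2OS cells stimulated with forskolin near its EC80 as the cAMP inducer; potency is for inhibition of forskolin-stimulated cAMP signaling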
Melanocortin receptor 4 = Melanocortin receptor 4 (Homo sapiens, UniProt P32245); test: MC4R antagonist potency on cAMP, dose response, cell-based, TR-FRET, biased antagonists (AID 602298); format: functional;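 further: antagonist potency against agonist-stimulated cAMP production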
[16] = molecular target: Photoreceptor-specific nuclear receptor (Homo sapiens, UniProt Q9Y5X4); format: functional, cell-based;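 further: CHO-S cells with Gal4-NCOR and VP16-NR2E3 two-hybrid luciferase reporter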
[17] = Luminescence Cell-Based Dose Retest to Confirm Inhibitors of Cancer Stem Cells. [Related pubchem assays (depositor defined):AID2717, AID2721]; format: functional; details: Homo sapiens
Large T antigen = Large T antigen (Simian virus 40, UniProt P03070); format: functional, Betapolyomavirus macacae;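 further: Confirmatory-stage PubChem screen for compounds that inhibit SV40 T antigen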
[18] = molecular target: T5, Endoribonuclease toxin MazF (Escherichia coli K-12, UniProt P0AE70); test: fluorescent RNA oligo signal without MazF, dose response, counter-screen for MazEF activator project, biochemical, fluorescence, single-stranded RNase substrate (AID 588502); format: functional
T5 sequence (P0AE70 whole entry): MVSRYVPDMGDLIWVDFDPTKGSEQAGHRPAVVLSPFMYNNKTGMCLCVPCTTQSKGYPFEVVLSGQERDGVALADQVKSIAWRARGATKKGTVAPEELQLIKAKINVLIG

[19] = molecular target: T5, Endoribonuclease toxin MazF; test: MazF toxin RNase activators, dose response, biochemical, fluorescence, single-stranded RNA substrate, uHTS hits (AID 588481); format: functional
Protein Wnt-3a = Protein Wnt-3a (Mus musculus, UniProt P27467); test: Wnt3a-driven reporter signaling inhibition, dose response, selectivity assay for Gli-SUFU antagonist project, Wnt-LIGHT cells, luminescence (AID 651570); format: functional; details: read-out: IC50_Mean;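 further: Wnt-LIGHT reporter cells stimulated with conditioned medium from Wnt3a-producing cells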
[20] = molecular target: T6, Mitochondrial peptide methionine sulfoxide reductase (Bos taurus, UniProt P54149); format: functional;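 further: absorbance read-out, biochemical high-throughput dose-response screen for MsrA inhibitors, confirmatory; recombinant bovine MsrA coupled to E. coli TrxB with NADPH and selenocystamine; potency is for inhibitors of MsrA activity on DMSO substrate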
T6 sequence (P54149 whole entry): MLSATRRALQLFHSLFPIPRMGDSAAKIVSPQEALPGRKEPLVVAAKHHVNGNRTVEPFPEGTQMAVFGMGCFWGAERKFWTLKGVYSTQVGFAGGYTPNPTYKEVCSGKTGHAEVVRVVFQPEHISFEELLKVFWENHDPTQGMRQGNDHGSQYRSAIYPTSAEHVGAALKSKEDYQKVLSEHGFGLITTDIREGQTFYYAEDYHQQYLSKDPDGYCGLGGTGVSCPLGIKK

Beta-galactosidase, sequence (Q8VNN2 whole entry): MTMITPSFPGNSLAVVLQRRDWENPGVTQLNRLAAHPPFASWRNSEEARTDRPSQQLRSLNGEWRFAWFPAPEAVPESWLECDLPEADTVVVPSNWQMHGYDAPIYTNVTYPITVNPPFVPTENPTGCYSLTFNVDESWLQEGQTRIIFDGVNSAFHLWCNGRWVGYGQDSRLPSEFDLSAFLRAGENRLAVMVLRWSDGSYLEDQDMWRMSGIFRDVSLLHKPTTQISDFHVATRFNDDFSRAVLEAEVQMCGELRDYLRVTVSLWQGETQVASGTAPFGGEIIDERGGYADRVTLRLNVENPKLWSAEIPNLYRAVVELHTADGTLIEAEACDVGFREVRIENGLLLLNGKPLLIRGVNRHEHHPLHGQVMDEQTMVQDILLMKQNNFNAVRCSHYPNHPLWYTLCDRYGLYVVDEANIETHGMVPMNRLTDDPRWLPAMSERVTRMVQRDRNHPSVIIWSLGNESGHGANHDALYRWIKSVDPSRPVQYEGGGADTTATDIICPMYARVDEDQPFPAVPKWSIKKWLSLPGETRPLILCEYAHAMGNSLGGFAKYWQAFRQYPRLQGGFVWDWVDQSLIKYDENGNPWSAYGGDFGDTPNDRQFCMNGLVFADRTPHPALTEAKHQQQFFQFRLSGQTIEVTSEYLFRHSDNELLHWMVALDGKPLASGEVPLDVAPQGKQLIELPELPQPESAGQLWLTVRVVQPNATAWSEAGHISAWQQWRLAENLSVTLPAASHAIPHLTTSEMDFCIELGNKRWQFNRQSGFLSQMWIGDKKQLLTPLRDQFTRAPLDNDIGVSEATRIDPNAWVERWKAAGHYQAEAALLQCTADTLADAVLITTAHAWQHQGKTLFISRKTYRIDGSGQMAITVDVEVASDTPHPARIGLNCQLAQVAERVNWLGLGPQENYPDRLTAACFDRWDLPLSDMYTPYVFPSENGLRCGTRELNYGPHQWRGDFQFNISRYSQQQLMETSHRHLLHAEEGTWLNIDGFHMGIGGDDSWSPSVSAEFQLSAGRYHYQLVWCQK
Adenosylmethionine-8-amino-7-oxononanoate aminotransferase, sequence (P9WQ81 whole entry): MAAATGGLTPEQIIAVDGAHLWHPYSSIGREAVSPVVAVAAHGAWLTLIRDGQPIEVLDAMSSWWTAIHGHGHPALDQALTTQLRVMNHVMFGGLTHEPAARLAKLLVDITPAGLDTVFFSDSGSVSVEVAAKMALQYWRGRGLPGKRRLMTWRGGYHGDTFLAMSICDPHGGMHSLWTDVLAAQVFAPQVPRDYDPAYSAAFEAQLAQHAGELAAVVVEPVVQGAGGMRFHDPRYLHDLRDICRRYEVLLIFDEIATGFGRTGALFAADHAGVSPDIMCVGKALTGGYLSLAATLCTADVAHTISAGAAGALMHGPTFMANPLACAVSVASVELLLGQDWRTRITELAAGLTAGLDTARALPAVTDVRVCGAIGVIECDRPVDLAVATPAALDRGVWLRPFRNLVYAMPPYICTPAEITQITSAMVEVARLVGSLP
Melanocortin receptor 4, sequence (P32245 whole entry, the tested form may be a part): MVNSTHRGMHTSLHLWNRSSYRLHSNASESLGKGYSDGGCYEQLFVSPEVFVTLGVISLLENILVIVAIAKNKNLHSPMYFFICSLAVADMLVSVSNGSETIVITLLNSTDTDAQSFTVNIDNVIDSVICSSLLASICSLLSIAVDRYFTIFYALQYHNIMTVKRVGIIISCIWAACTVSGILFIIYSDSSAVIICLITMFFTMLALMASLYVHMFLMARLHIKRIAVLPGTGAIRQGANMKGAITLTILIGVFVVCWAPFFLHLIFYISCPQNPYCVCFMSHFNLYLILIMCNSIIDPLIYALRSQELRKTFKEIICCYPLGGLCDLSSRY
Large T antigen, sequence (P03070 whole entry): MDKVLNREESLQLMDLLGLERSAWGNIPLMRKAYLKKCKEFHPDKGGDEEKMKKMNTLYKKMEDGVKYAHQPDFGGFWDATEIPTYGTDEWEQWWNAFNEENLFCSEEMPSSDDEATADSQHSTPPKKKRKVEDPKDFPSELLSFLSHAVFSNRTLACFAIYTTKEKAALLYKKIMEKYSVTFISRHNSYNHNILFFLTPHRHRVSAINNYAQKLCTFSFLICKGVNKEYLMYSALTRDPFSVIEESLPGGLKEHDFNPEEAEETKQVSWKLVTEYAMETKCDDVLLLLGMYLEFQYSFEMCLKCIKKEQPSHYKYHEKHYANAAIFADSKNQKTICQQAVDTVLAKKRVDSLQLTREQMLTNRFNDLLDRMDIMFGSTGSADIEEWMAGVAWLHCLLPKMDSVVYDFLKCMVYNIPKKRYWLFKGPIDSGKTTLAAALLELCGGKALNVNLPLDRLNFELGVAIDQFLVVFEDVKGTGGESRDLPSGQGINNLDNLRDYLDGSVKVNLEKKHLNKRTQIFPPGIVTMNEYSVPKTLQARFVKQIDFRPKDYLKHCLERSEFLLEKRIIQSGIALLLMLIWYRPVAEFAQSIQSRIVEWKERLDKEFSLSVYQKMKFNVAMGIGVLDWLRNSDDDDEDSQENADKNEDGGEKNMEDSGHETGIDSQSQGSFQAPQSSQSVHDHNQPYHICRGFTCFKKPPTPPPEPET
Photoreceptor-specific nuclear receptor, sequence (Q9Y5X4 whole entry, the tested form may be a part): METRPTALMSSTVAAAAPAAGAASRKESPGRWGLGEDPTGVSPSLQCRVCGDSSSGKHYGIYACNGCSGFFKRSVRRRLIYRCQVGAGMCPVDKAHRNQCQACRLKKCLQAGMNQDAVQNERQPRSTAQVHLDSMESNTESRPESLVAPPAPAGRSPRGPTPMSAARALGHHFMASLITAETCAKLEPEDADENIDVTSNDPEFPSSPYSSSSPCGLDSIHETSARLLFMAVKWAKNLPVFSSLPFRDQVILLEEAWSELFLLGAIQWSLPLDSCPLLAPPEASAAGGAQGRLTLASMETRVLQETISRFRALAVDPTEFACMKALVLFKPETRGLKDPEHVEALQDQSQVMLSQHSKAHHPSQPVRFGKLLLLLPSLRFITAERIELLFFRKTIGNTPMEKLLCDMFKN
Luciferin 4-monooxygenase, sequence (P08659 whole entry): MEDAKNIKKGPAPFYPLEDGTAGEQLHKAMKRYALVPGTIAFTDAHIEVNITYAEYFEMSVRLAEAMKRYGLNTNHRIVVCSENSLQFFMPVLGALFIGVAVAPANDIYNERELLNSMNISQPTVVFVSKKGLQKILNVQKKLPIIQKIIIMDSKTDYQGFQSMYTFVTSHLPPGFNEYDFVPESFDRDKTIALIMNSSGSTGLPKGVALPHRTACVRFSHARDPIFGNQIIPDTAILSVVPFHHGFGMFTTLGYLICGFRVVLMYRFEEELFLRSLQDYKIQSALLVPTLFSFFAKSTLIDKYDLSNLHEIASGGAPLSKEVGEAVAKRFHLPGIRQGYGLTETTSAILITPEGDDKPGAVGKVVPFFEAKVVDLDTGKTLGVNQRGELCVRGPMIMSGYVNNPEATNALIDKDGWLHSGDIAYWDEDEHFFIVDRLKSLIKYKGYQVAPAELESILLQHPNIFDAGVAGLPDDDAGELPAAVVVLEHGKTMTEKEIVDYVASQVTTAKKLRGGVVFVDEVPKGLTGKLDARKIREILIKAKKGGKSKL
Glucose-6-phosphate 1-dehydrogenase, sequence (P11413 whole entry): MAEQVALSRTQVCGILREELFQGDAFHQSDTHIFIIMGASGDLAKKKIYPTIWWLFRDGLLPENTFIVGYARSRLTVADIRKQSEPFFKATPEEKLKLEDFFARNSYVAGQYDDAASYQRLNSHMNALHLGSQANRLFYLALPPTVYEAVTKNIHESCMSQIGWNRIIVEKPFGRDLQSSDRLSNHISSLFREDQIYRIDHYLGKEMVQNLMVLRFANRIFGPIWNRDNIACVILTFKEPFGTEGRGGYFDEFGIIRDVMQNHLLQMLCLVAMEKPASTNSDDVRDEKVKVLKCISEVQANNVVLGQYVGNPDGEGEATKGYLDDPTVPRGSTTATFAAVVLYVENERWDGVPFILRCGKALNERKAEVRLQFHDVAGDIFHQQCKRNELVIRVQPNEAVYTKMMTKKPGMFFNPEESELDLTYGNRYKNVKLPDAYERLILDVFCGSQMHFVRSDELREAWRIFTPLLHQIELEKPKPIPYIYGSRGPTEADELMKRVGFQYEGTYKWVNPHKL
Paired box protein Pax-8, sequence (Q06710 whole entry): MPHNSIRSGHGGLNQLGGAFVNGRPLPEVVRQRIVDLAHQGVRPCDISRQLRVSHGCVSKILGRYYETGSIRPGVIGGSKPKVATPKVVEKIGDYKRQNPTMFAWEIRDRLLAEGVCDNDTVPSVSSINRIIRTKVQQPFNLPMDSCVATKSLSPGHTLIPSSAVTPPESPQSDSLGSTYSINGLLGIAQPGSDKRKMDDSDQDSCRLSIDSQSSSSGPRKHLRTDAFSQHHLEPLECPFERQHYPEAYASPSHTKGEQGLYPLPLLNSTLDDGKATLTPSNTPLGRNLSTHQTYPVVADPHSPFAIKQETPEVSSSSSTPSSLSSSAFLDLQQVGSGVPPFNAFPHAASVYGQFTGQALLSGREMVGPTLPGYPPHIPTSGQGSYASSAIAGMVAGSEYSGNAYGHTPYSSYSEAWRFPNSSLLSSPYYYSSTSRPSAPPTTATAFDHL
Protein Wnt-3a, sequence (P27467 whole entry): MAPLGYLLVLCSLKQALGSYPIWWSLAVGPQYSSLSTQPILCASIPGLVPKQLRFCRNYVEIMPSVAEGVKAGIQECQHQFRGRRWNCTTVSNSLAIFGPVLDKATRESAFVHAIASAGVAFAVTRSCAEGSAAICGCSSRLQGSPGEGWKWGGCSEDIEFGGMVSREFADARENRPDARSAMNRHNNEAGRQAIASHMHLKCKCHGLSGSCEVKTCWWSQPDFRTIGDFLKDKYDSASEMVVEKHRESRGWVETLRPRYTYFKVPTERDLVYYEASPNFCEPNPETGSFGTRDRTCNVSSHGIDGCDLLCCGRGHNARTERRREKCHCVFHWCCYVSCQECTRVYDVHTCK

Nn1c(SCc2nc3ccccc3[nH]2)nnc1-c1cccnc1
AC50 [1]: 5.06 µM (active)

COc1ccc(NC(=O)N[C@@H]2CC[C@@H](CCn3cc(-c4ccccn4)nn3)O[C@H]2CO)cc1
AC50 [2]: 82.2 µM (active)

O=C(Nc1ccccc1Cl)c1ccc2nccnc2c1
AC50 (HeLa): 67.6 µM (active)

O=C(CNc1ccc(Br)cc1)c1ccc(Br)s1
IC50 [3]: 14.7 µM (active)
EC50 (Beta-galactosidase): > 40 µM (inactive)
EC50 [4]: > 91.1 µM (inactive)
EC50 [5]: > 91.1 µM (inactive)

Brc1ccc(N=Nc2ccc3ccccc3n2)cc1
EC50 [6]: 0.125 µM (active)
IC50 [3]: > 40 µM (not active)
EC50 [7]: 0.299 µM (active)
EC50 [8]: 0.969 µM (active)
EC50 (Beta-galactosidase): > 40 µM (inactive)
EC50 [9]: 0.107 µM (active)

COc1ccc(C(=O)ON=C2C=C(C)C(=O)C(C)=C2)cc1
IC50 [10]: > 80 µM (inactive)
IC50 (Coagulation factor XII): 0.574 µM (active)

Oc1nncc2c3ccccc3n(Cc3cccc(Cl)c3)c12
IC50 [11]: 4.44 µM (active)
IC50 [12]: 4.55 µM (active)

CCN(CC)c1ccc(C(NC(=O)C(C)C)c2ccc3cccnc3c2O)cc1 (centres undefined)
AC50 (HEK293): 7.26 µM (active)
AC50 [13]: 3.72 µM (active)
AC50 (Paired box protein Pax-8): 1.09 µM (active)

Cc1ccc(C)c(NC(=O)COC(=O)c2cccc3c2C(=O)c2ccccc2C3=O)c1
EC50 [6]: > 120 µM (not active)
EC50 [14]: > 60 µM (not active)
IC50 [15]: > 64.6 µM (inactive)
IC50 (Melanocortin receptor 4): > 64.6 µM (inactive)
EC50 [9]: > 120 µM (not active)

CCCCC[C@@H]1C=C(C(=O)O)[C@H](c2ccc(Cl)c(Cl)c2)N1S(=O)(=O)c1ccc(C)cc1
IC50 [16]: 4.88 µM (active)
AC50 [17]: 4.58 µM (active)

Fc1ccc2nc(N3CCCC3)sc2c1
AC50 (HeLa): 42.8 µM (active)

COc1ccc(NC(=O)c2ccc(-n3cncn3)c([N+](=O)[O-])c2)cc1OC
AC50 [1]: 2.2 µM (active)

Cc1ccc(NC(=O)Nc2ccc3c(c2)N(C)C(=O)CS3)nc1
AC50 (HeLa): > 350 µM (inactive)

CC(C)(C)OC(=O)N/N=C/c1ccc(N2CCOCC2)s1
IC50 (Large T antigen): 13.2 µM (active)
EC50 [18]: 46.9 µM (inactive)
IC50 [11]: 11.9 µM (active)
EC50 [19]: > 99 µM (inactive)
IC50 [12]: 8.28 µM (active)

O=C(C[C@@H]1C/C=C\C[C@H](NC(=O)OCC2c3ccccc3-c3ccccc32)C(=O)OC[C@H]2CCCN2C1=O)N[C@H](CO)Cc1ccccc1
IC50 (Protein Wnt-3a): 8.46 µM (active)

Cn1cc(CC(=O)NCCCN2CCCC2)c2ccccc21
AC50 [13]: 43.5 µM (active)

Cc1ccc(C2=N/C(=C/N3CCOCC3)C(=O)O2)cc1
IC50 [20]: 142 µM (inactive)

COc1cccc(C2c3[nH]c4ccccc4c3CCN2Cc2ncc[nH]2)c1 (centres undefined)
AC50 [2]: 123 µM (active)

COC(=O)c1c(NC(=O)C2COc3ccccc3O2)sc2c1CCN(C(=O)OC)C2 (centres undefined)
IC50 [15]: > 64.6 µM (inactive)
IC50 (Melanocortin receptor 4): > 64.6 µM (inactive)

C[C@@H]1CN([C@H]2CC[C@](C#N)(c3ccc(F)cc3)CC2)CC[C@]1(C(=O)O)c1ccccc1 [LEVOCABASTINE HYDROCHLORIDE]
AC50 [13]: 197 µM (active)

COc1ccc(-c2cc(-c3ccccc3)nc(NN)n2)cc1OC
IC50 [3]: 11.2 µM (active)
EC50 (Beta-galactosidase): > 40 µM (inactive)
